Laboratory results taken from ChEMBL document CHEMBL2074372, “CHO/hPEPT1 cells overexpressing the human peptide transporter (hPEPT1) as an alternative in vitro model for peptidomimetic drugs” (J Pharm Sci, 1999).

What was measured:
[1] = target: T1, Solute carrier family 15 member 1 (Homo sapiens, UniProt P46059); assay: TP_TRANSPORTER: inhibition of Gly-Sar uptake (Gly-Sar: 20 uM) in PEPT1-expressing CHO cells; format: functional, cell-based
T1 sequence (P46059 whole entry): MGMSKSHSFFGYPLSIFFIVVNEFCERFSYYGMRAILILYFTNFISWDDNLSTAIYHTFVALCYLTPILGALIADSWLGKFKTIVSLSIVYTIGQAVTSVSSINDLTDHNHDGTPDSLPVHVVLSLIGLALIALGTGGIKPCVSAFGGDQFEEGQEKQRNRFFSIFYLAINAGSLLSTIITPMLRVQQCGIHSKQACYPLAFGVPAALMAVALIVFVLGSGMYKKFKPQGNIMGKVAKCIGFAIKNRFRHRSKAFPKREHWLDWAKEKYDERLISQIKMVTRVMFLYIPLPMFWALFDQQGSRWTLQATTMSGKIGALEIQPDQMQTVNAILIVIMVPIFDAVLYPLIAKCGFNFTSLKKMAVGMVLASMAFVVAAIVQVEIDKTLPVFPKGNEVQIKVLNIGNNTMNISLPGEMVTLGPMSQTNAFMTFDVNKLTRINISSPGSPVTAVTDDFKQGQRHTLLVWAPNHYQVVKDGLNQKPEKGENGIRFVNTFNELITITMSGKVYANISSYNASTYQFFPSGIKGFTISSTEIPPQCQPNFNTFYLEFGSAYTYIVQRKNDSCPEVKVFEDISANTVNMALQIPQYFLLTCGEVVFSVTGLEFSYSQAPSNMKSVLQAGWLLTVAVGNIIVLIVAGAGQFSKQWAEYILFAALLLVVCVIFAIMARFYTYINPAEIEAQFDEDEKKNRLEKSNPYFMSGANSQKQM

[2] = target: T2, Solute carrier family 15 member 1 (Homo sapiens) (UniProt P46059); assay: TP_TRANSPORTER: uptake in PEPT1-expressing CHO cells; format: functional, cell-based
T2 sequence (whole entry): T1 sequence (P46059 whole entry)

IC50 [1] | Activity [2] | Compound
141 mM | – | N[C@@H](Cc1ccc(O)c(O)c1)C(=O)O [LEVODOPA]
152 mM | – | C[C@](N)(Cc1ccc(O)c(O)c1)C(=O)O [METHYLDOPA]

Second part, the compound before the results:

Compound | IC50 [1] | Activity [2]
CCOC(=O)[C@H](CCc1ccccc1)N[C@@H](C)C(=O)N1CCC[C@H]1C(=O)O | 4.5 mM | –
N[C@@H](C(=O)N[C@@H]1C(=O)N2C(C(=O)O)=C(Cl)CS[C@H]12)c1ccccc1 [CEFACLOR ANHYDROUS] | 8.2 mM | substrate [+]
CC1=C(C(=O)O)N2C(=O)[C@@H](NC(=O)[C@H](N)C3=CCC=CC3)[C@H]2SC1 [CEPHRADINE] | 15.3 mM | substrate [+]
